12 compounds from patent US11191769B2, “Fused thiophene compounds” (BioTheryX, Inc., priority 2018, dated 2021) can be followed below.

Common to all, as to type: cell-based
One assay deals with IL-2. The experiment in a line: IL-2 fold-change assay, anti-CD3 stimulated PBMCs, Mesoscale. The conditions noted are these: PBMC, PBMCs on anti-human CD3 (OKT3) coated plates, 24 h, fold difference from the DMSO control. How it is done:
For the IL-2 analysis, 96 well plates were precoated with 1 μg/mL anti-human CD3 antibody (OKT3, eBioscience Inc., San Diego, Calif.). After washing with PBS, the indicated compound was added (50 μL/well) followed by PBMCs diluted at 3-4 million cells/mL (150 μL/well). Plates were incubated for 24 h and the supernatants collected for Mesoscale IL-2 analysis. IL-2 activity is measured as fold difference from the DMSO control.
(§1) In each of Tables 5-7, the % inhibition values are reported as “A”, “B”, “C”, or “D”. “A” represents a % inhibition value of less than 50% (value <50%). “B” represents a % inhibition value of equal to or more than 50% and less than 70% (50%≤value<70%). “C” represents a % inhibition value of equal to or more than 70% and less than 90% (70%≤value<90%). “D” represents a % inhibition value of equal or more than 90% (value≥90%). In Table 8, the fold-change values are reported as “A”, “B”, “C”, or “D”. “A” represents a fold-change value of equal to or less than 1 (value≤1). “B” represents a fold-change value of more than 1 and equal to or less than 2 (1<value≤2). “C” represents a fold-change value of more than 2 and equal to or less than 3 (2<value≤3). “D” represents a fold-change value of more than 3 (value>3).

Another assay concerns the target T1, IKAROS (Homo sapiens, UniProt Q13422+Q96SW2).
T1 construct: endogenous in cells; host or cells: MV-4-11
Kind of assay: IKAROS degradation assay (Western blot, MV-4-11 cells). The note with it: 6-8 hours; for IKAROS % degradation at 1 µM: MV4-11, 1 μM. The method, then:
(§2) MV-4-11 cells were grown in RPMI 1640 media supplemented with 10% fetal bovine serum, streptomycin and penicillin.
(§3) Cells were cultured at approximately 10^6 cells per mL and incubated in DMSO or the indicated compound for 6-8 hours. Whole cell extracts were prepared using RIPA buffer according to manufacturer's protocol (Pierce). Briefly, 3×10^6 cells were washed once in PBS, the cell pellets were resuspended in RIPA buffer and allowed to incubate for 15 minutes on ice. Cells debris was removed by centrifugation and the cleared whole cell lysates were transferred to new tubes for further analysis.
(§4) For Western blot analysis, whole cell protein extracts were separated on 4-12% SDS-polyacrylamide gels, transferred to nitrocellulose and probed with the indicated primary antibodies. Membranes were subsequently washed and probed with the appropriate IRDye secondary antibodies (LI-COR). The signal was detected using the Odyssey Imaging System (LI-COR).
(§5) The following antibodies were used in these studies: Anti-eRF3/GSPT1: Abcam, ab126090 (Cambridge, Mass.); Anti-Ikaros: Abcam, ab191394 (Cambridge, Mass.); Anti-CK1α: Abcam, ab108296 (Cambridge, Mass.); β-actin (8H10D10) mouse monoclonal antibody: Cell Signaling Technology, #3700 (Danvers, Mass.); IRDye 680RD Goat anti-rabbit antibody: LI-COR, 926-68071 (Lincoln, Nebr.); IRDye 800CW Goat anti-mouse antibody: LI-COR, 926-32210 (Lincoln, Nebr.).
(§6) In each of Tables 1-4, the % degradation values are reported as “A”, “B”, “C”, or “D”. “A” represents a % degradation value of less than 25% (value<25%). “B” represents a % degradation value of equal to or more than 25% and less than 50% (25%≤value<50%). “C” represents a % degradation value of equal to or more than 50% and less than 75% (50%≤value <75%). “D” represents a % degradation value of equal to or more than 75% (value≥75%).
A general note: A western blot detects proteins with antibodies after separation by electrophoresis.

In another assay the test system is TNFα. The experiment in a line: TNF-α inhibition assay, LPS-induced PBMCs or CD14+ monocytes, Meso Scale. The note with it: 1 h pretreatment, 100 ng/mL LPS 18-24 h, supernatant. The method, then: (§7) Either frozen primary blood mononuclear cells (PBMCs) or frozen CD14+ mobilized peripheral blood monocytes were purchased from AllCells (PB003F, Normal Peripheral Blood MNC (Alameda, Calif.)). Cells were quick thawed, washed 1-time with RPMI-1640 (10% FBS/1% Pen-Strep) and plated in 96 well plates at 200,000 cells per well. Cells were pretreated with DMSO only or with the indicated compound for 1 h and then induced with 100 ng/mL lipopolysaccharide (LPS) for 18-24 h. The supernatant was analyzed for IL-1β, IL-6, and TNFα, using Meso Scale assay according to manufacturer's protocol. The negative control wells were treated with DMSO.
as §1

In another assay the test system is IL-1β. Kind of assay: IL-1β inhibition assay, LPS-induced PBMCs or CD14+ monocytes, Meso Scale. The conditions noted are these: 1 h pretreatment, 100 ng/mL LPS 18-24 h, supernatant, read-out: I1-1β % Inhibition at 10 μM. The method, then: as §7, §1
The test system of the next assay is IL-6. The experiment in a line: IL-6 inhibition assay, LPS-induced PBMCs or CD14+ monocytes, Meso Scale. The note with it: 1 h pretreatment, 100 ng/mL LPS 18-24 h, supernatant. How it is done: as §7, §1
The subject of another assay is MOLM-13 cells. Kind of assay: MOLM-13 cell viability assay (CellTiter-Glo). The conditions noted are these: Homo sapiens, MOLM-13, 72 h, 3 days, % of DMSO control. How it is done:
MOLM-13 cells were cultured in RPMI 1640 media supplemented with 10% fetal bovine serum, streptomycin and penicillin, and were plated in white walled 96-well plates at 2500 cells/well. Cells were incubated in DMSO (control) or the indicated compound for 3 days at 37° C. and 5% CO2. Following the incubation period, 100 μL of CellTiterGlow (CTG) reagent (CellTiter-Glo® Luminescent Cell Viability Assay, Promega (Madison, Wis.)) was added to each well. Following a 10 minutes incubation with shaking, luminescence was measured using the EnVision Multimode plate reader.
The MOLM-13 cell viability values as % DMSO are reported as “A”, “B”, “C”, or “D”. “A” represents a % viability value of less than 25% (value<25%). “B” represents a % viability value of equal to or more than 25% and less than 50% (25%≤value<50%). “C” represents a % viability value of equal to or more than 50% and less than 75% (50%≤value<75%). “D” represents a % viability value of equal or more than 75% (value≥75%).
(In general: In ATP-based viability assays light output follows the ATP content of the culture.)

In a further assay the target is T2, CK1α (Homo sapiens, UniProt P48729+Q96SW2).
T2 construct: Whole cell extracts were prepared using RIPA buffer; endogenous in cells; host or cells: MV-4-11
T2 sequence (P48729 whole entry): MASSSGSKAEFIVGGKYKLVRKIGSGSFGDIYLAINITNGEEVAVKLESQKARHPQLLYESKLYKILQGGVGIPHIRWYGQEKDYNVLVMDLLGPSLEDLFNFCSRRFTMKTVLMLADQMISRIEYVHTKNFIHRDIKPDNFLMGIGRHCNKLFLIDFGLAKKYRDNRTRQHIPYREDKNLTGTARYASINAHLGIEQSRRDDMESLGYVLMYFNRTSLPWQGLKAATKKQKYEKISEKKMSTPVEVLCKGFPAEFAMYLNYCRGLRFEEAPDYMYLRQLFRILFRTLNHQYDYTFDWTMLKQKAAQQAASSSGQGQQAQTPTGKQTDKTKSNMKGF
T2 sequence (Q96SW2 whole entry): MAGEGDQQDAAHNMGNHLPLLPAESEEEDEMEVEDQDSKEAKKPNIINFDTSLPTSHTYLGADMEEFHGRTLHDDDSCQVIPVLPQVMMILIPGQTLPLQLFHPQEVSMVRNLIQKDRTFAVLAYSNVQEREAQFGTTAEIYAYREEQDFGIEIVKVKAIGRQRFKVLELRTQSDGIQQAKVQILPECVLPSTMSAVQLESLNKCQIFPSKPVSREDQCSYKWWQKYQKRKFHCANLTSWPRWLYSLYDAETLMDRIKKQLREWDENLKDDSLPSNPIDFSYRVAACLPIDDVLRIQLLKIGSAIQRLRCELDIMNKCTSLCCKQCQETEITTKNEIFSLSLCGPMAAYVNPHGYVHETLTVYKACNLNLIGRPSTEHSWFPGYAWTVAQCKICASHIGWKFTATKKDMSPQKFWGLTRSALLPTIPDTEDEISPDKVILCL
T2 sequence (Q16531 whole entry partner): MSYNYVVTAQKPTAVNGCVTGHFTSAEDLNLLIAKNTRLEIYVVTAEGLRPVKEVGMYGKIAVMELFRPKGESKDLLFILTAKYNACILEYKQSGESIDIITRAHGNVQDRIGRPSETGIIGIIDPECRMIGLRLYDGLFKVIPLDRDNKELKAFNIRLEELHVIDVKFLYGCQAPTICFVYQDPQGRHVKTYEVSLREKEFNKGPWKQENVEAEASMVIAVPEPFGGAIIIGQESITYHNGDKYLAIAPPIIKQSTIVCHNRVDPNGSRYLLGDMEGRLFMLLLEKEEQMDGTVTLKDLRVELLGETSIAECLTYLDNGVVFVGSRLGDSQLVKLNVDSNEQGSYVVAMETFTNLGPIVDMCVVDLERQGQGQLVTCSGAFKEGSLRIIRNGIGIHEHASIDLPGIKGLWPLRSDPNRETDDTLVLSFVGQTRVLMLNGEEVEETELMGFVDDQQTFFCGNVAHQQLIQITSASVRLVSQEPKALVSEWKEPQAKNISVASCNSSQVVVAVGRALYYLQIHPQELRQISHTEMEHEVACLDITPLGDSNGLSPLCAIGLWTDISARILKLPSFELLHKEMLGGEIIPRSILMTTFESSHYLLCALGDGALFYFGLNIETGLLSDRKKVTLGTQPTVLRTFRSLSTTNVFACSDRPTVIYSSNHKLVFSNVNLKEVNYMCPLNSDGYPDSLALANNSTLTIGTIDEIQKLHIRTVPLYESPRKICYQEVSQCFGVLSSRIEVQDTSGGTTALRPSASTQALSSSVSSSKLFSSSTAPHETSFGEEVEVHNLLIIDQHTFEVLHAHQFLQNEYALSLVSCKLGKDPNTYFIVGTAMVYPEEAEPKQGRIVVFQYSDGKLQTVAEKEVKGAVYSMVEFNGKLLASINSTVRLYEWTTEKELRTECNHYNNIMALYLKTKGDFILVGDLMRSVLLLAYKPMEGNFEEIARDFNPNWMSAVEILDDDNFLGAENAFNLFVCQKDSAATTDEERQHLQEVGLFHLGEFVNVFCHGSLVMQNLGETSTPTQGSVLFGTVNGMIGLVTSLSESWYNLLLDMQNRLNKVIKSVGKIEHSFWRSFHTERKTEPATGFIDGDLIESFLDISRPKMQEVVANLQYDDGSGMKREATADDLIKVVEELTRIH
Kind of assay: CK1α degradation assay (Western blot, MV-4-11 cells). The conditions noted are these: MV4-11, 6-8 hours. How it is done:
as §2, §3, §4, §5, §6

T1 sequence (Q13422 whole entry): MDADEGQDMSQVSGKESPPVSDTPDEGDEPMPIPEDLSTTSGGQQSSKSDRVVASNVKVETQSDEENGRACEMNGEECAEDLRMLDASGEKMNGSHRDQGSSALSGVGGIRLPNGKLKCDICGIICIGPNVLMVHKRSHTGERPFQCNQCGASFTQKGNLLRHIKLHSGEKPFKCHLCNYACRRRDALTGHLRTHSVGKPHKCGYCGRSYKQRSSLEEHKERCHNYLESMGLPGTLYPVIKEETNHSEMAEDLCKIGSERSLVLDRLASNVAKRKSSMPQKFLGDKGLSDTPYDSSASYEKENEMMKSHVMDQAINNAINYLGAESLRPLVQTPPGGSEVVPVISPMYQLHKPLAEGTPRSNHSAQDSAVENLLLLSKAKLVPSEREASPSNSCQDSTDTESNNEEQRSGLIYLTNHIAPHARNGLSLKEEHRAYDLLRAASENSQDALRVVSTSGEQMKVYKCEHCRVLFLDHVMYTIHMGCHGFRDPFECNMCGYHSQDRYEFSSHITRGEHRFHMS
T1 sequence (Q96SW2 whole entry): as the sequence (Q96SW2 whole entry) above
T1 sequence (Q16531 whole entry partner): as the sequence (Q16531 whole entry partner) above

With `O=C1CC[C@H](N2Cc3c(NCc4ccc(CN5CCOCC5)cc4)csc3C2=O)C(=O)N1` [Compound 3, (S)-3-(3-((4-(morpholinomethyl)benzyl)amino)-6-oxo-4H-thieno[2,3-c]pyrrol-5(6H)-yl)piperidine-2,6-dione], in the assay with IL-2, the fold induction at 10 µM was at most 1. The “IKAROS % Degradation at 10 μM” value at IKAROS is “C (“C” represents a % degradation value of equal to or more than 50% and less than 75% (50%≤value <75%))”. Also, the inhibition at 10 µM with TNFα is under 50%.
Compound `O=C1CC[C@H](N2Cc3c(COc4ccc(CN5CCOCC5)cc4)csc3C2=O)C(=O)N1` [Compound 5, (S)-3-(3-((4-(morpholinomethyl)phenoxy)methyl)-6-oxo-4H-thieno[2,3-c]pyrrol-5(6H)-yl)piperidine-2,6-dione] returned a fold induction at 10 µM in the assay on IL-2 of 1 to 2.
In the case of `O=C1CC[C@H](N2Cc3c(csc3CCc3ccc(CN4CCOCC4)cc3)C2=O)C(=O)N1` [Compound 6, (S)-3-(1-(4-(morpholinomethyl)phenethyl)-4-oxo-4H-thieno[3,4-c]pyrrol-5(6H)-yl)piperidine-2,6-dione], the inhibition at 10 µM in the assay on IL-1β was 70 to 90%; in the assay on IL-6 it was under 50%; in the assay on TNFα, 70 to 90%. For the same compound, in the assay with IL-2, the fold induction at 10 µM lay in the range of 2 to 3. The IKAROS % degradation at 1 µM at IKAROS was 25 to 50%.
As to `O=C1CC[C@H](N2Cc3c(csc3COc3cccc(CN4CCOCC4)c3)C2=O)C(=O)N1` [Compound 7, (S)-3-(1-((3-(morpholinomethyl)phenoxy)methyl)-4-oxo-4H-thieno[3,4-c]pyrrol-5(6H)-yl)piperidine-2,6-dione], the inhibition at 10 µM in the assay with IL-1β and in the assay with TNFα was 70 to 90% in each case. The compound further displayed a fold induction at 10 µM with IL-2 of 2 to 3. Further, the IKAROS % degradation at 1 µM on IKAROS was in the range of 50 to 75%.
For the compound `O=C1CC[C@H](N2Cc3c(csc3COc3ccc(CN4CCOCC4)cc3F)C2=O)C(=O)N1` [Compound 8, (S)-3-(1-((2-fluoro-4-(morpholinomethyl)phenoxy)methyl)-4-oxo-4H-thieno[3,4-c]pyrrol-5(6H)-yl)piperidine-2,6-dione], the inhibition at 10 µM was over 90% in the assay with IL-1β, 70 to 90% in the assay on IL-6 and over 90% in the assay with TNFα. Also, in the assay on IL-2, the fold induction at 10 µM was 2 to 3. Moreover, on IKAROS, the IKAROS % degradation at 1 µM lay within 25 to 50%.
As to `O=C1CC[C@H](N2Cc3c(csc3COCc3ccc(CN4CCOCC4)cc3)C2=O)C(=O)N1` [Compound 9, (S)-3-(1-(((4-(morpholinomethyl)benzyl)oxy)methyl)-4-oxo-4H-thieno[3,4-c]pyrrol-5(6H)-yl)piperidine-2,6-dione], the inhibition at 10 µM with IL-1β is 70 to 90%; with IL-6 it was under 50%; with TNFα it was over 90%. In the assay with IL-2, the fold induction at 10 µM is over 3.
Consider `O=C1CC[C@H](N2Cc3c(csc3CNc3ccc(CN4CCOCC4)cc3)C2=O)C(=O)N1` [Compound 10, (S)-3-(1-(((4-(morpholinomethyl)phenyl)amino)methyl)-4-oxo-4H-thieno[3,4-c]pyrrol-5(6H)-yl)piperidine-2,6-dione], for which the inhibition at 10 µM in the assay with IL-1β was 70 to 90%; in the assay on IL-6, under 50%; with TNFα, over 90%. In the assay on IL-2, this compound returned a fold induction at 10 µM of 2 to 3. Moreover, the viability at 10 µM with MOLM-13 cells lay in the range of 25 to 50%.
With `O=C1CC[C@H](N2Cc3c(CNc4ccc(CN5CCOCC5)cc4)csc3C2=O)C(=O)N1` [Compound 11, (S)-3-(3-(((4-(morpholinomethyl)phenyl)amino)methyl)-6-oxo-4H-thieno[2,3-c]pyrrol-5(6H)-yl)piperidine-2,6-dione], in the assay with IL-2, the fold induction at 10 µM was in the range of 1 to 2. Also, the viability at 10 µM in the assay with MOLM-13 cells is under 25%. The inhibition at 10 µM in the assay with TNFα was under 50%.
In the assay on IL-2, `O=C1CC[C@H](N2Cc3c(csc3COc3ccc(CN4CCOCC4)cn3)C2=O)C(=O)N1` [Compound 12, (S)-3-(1-(((5-(morpholinomethyl)pyridin-2-yl)oxy)methyl)-4-oxo-4H-thieno[3,4-c]pyrrol-5(6H)-yl)piperidine-2,6-dione] showed a fold induction at 10 µM of 1 to 2. For the same compound, the inhibition at 10 µM in the assay with TNFα is under 50%.
On to `O=C1CC[C@H](N2Cc3c(csc3COc3ccc(CCN4CCOCC4)cc3)C2=O)C(=O)N1` [Compound 15, (S)-3-(1-((4-(2-morpholinoethyl)phenoxy)methyl)-4-oxo-4H-thieno[3,4-c]pyrrol-5(6H)-yl)piperidine-2,6-dione], for which the inhibition at 10 µM in the assay on IL-1β was over 90%; in the assay with IL-6, 50 to 70%; in the assay with TNFα it was 70 to 90%. Also, the fold induction at 10 µM with IL-2 is over 3. The compound also showed an IKAROS % degradation at 1 µM on IKAROS of 25 to 50%. On CK1α, this compound registered a percent degradation at 1 µM of 25 to 50%.
In the assay on IL-2, `O=C1CC[C@H](N2Cc3cc(COc4ccc(CN5CCOCC5)cc4)sc3C2=O)C(=O)N1` [Compound 16, (S)-3-(2-((4-(morpholinomethyl)phenoxy)methyl)-6-oxo-4H-thieno[2,3-c]pyrrol-5(6H)-yl)piperidine-2,6-dione] had a fold induction at 10 µM of at most 1. For the same compound, the “IKAROS % Degradation at 10 μM” value at IKAROS is “A (“A” represents a % degradation value of less than 25% (value<25%))”. Besides, in the assay with TNFα, the inhibition at 10 µM is under 50%.
For the compound `O=C1CC[C@H](N2C(=O)c3csc(COc4ccc(CN5CCOCC5)cc4)c3C2=O)C(=O)N1` [Compound 20, (S)-5-(2,6-dioxopiperidin-3-yl)-1-((4-(morpholinomethyl)phenoxy)methyl)-4H-thieno[3,4-c]pyrrole-4,6(5H)-dione], the inhibition at 10 µM with IL-1β and with TNFα was 50 to 70% throughout. The compound further yielded a fold induction at 10 µM with IL-2 of 1 to 2. The “IKAROS % Degradation at 10 μM” value on IKAROS is “B (“B” represents a % degradation value of equal to or more than 25% and less than 50% (25%≤value<50%))”. The compound further came in with a viability at 10 µM in the assay on MOLM-13 cells of under 25%.

As usually defined, the fold induction is the signal under treatment as a multiple of the control signal. The term inhibition denotes the relative decrease from the control value, in per cent. One may read the viability as a read-out of living cells in per cent, often relative to untreated cells. Higher therefore signals better survival.
